Each block holds one compound with its values, some of them ahead of it.
Tests used:
[1] = biological target: von Hippel-Lindau disease tumor suppressor/Histone deacetylase 8 (+); test: PROTAC activity at VHL/HDAC8 in human Jurkat cells assessed as induction of HDAC8 degradation measured for 6 hrs by Western blot analysis
[2] = biological target: Histone deacetylase; test: Inhibition of HDAC in human HeLa nuclear extract using Boc-Lys(Ac)-AMC or Boc-Lys(Tfa)-AMC as substrate pre-incubated for 5 mins followed by substrate addition and measured after 30 mins by fluorescence assay; assay type: cell-free
[3] = biological target: Histone deacetylase 2 (Homo sapiens, UniProt Q92769); test: Inhibition of HDAC2 (unknown origin)
[4] = biological target: T1, Histone deacetylase 8 (Homo sapiens, UniProt Q9BY41); test: Inhibition of HDAC8 (unknown origin) using biotinylated histone H3 KAc peptide (1 to 21 residues) as substrate by HTRF assay
T1 sequence (Q9BY41 whole entry): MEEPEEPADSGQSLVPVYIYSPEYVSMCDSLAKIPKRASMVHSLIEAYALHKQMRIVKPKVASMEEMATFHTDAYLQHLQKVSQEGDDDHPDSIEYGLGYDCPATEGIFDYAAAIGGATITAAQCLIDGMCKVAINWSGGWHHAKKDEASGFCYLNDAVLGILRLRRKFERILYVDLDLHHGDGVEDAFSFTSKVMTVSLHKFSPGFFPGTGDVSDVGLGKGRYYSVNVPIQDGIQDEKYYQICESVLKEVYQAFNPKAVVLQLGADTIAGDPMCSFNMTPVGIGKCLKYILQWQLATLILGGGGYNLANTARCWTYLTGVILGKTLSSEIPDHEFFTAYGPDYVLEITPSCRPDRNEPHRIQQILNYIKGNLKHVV

Sequence of Histone deacetylase 2 (Q92769 whole entry, the tested form may be a part): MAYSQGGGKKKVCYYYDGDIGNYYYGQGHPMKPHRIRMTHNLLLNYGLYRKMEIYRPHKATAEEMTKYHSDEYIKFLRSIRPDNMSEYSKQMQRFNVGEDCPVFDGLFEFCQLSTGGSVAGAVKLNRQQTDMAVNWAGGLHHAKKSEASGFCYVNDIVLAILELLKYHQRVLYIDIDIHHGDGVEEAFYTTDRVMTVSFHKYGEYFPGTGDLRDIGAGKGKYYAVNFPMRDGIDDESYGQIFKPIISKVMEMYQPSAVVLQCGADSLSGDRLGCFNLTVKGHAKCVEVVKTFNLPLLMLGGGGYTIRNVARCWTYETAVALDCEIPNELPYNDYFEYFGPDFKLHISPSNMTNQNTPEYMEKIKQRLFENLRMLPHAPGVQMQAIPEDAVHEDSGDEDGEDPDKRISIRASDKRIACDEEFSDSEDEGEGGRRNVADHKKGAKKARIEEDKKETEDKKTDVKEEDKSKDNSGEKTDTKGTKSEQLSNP

- DC50 [1]: 0.58 µM
Structure (SMILES): O=C1CCC(N2C(=O)c3cccc(NCc4cn(CCOCCOc5ccc(Cn6ccc7ccc(C(=O)NO)cc76)cc5)nn4)c3C2=O)C(=O)N1 (stereo not given)

- DC50 [1]: 0.0018 µM
Structure (SMILES): COc1ccc(C(=O)NO)cc1OCc1ccc(C(=O)NCCCCCCCCNc2cccc3c2C(=O)N(C2CCC(=O)NC2=O)C3=O)cc1 (stereo not given)

- IC50 [2]: > 10 µM
Structure (SMILES): COc1ccc(/C=C/C(=O)NO)c(-c2ccc(Br)cc2)c1

- IC50 [3]: 129 µM
- IC50 [4]: 40.2 µM
Structure (SMILES): O=c1cc(-c2ccccc2)oc2cc(O)cc(O)c12 [CHRYSIN]

Source: ChEMBL document CHEMBL6078634, “HDAC8 as a target in drug discovery: Function, structure and design” (Eur J Med Chem, 2024)
